Source: patent US20250186563A1, “UNIT DOSE FORMULATION OF ANTIDOTES FOR FACTOR XA INHIBITORS AND METHODS OF USING THE SAME” (Alexion Pharmaceuticals, Inc., priority 2009, published 2025)

Tests used:
[1] = system: PT of pooled human plasma; assay: Prothrombin time (PT) human plasma clotting assay; type: biochemical
[2] = system: blood loss due to enoxaparin; design: species or system Sprague-Dawley rats; details: in vivo
[3] = system: enoxaparin-induced anticoagulation; assay: Enoxaparin-induced anticoagulation and its reversal in rats; type: in vivo
[4] = system: clot formation in human platelet poor plasma; assay: Clotting prolongation assay, 96-well plate format (OD405 turbidity); type: biochemical; details: 1 U/ml enoxaparin; aPTT reagent
[5] = cited from earlier work
[6] = in vivo; cited from earlier work
[7] = system: PT of rhesus monkey plasma; assay: Prothrombin time in rhesus monkey plasma; type: biochemical, rhesus monkeys; details: 250 nM rivaroxaban; baseline 17.5±1.6 sec
thrombin generation = assay: Thrombin generation assay in platelet poor plasma; type: biochemical, human; details: betrixaban 250 nM; in presence of rfVIIa (50-200 nM) and tissue factor; PPP
[8] = system: aPTT of pooled human plasma; assay: aPTT human plasma clotting assay (MLA Electra 800 coagulation timer); type: biochemical
[9] = In vivo mouse model, PK-PD of betrixaban with antidote; design: species or system C57Bl/6 mice; details: male, C57Bl/6, mouse, plasma, oral, Betrixaban (ng/mL), […] after 15 mg/kg betrixaban PO, 5 min after antidote injection
[10] = Sustained reversal of betrixaban-induced anticoagulation in rats; type: in vivo; details: rat, plasma, intravenous
fXa (bovine fXa) = assay: Plasma anti-fXa activity assay (modified Coamatic LMWH kit); type: in vivo; design: dose or concentration left out as unconfirmed; details: fondaparinux
[11] = system: blood loss due to fondaparinux; assay: Rat tail transection blood loss model, fondaparinux; type: in vivo, Sprague-Dawley rats; details: fondaparinux 25 mg/kg IV bolus, protamine 0.9 mg IV bolus
[12] = 1 mg/kg/hr, Betrixaban alone (uM), plasma concentration, betrixaban 1.0 mg/kg/hr IV for 30 min, no antidote
[13] = Betrixaban + antidote (uM), betrixaban plasma concentration, betrixaban infusion then r-Antidote 5 mg bolus + 5 mg/hr

COc1ccc(-n2nc(C(N)=O)c3c2C(=O)N(c2ccc(N4CCCCC4=O)cc2)CC3)cc1 [apixaban]
PT ([1]; 1 μM apixaban): 16.4 s

enoxaparin
maximum blood loss (plateau), of normal rat blood volume [2]: approximately 5%
peak anticoagulation in rat plasma (Coatest LMW heparin assay) ([3]; enoxaparin 1 mg/kg IV bolus): 1 anti fXa U/ml
peak anticoagulation in rat plasma (Coatest LMW heparin assay) ([3]; enoxaparin 3 mg/kg IV bolus): 4 anti fXa U/ml
whole blood INR ([3]; rats, enoxaparin 1, 3 and 6 mg/kg IV bolus): dose proportional extensions
extension of clotting time compared to control plasma [4]: greater than 5 fold
peak anti fXa activity ([5]; human, in vivo, sc, 1 mg/kg): 1.1 U/ml
Mean absolute bioavailability ([5]; human, in vivo, sc): 92%
anti-fXa level corresponding to prescribed dose ([5]; human, in vivo): approximately 1 U/mL

O=C(NC[C@H]1CN(c2ccc(N3CCOCC3=O)cc2)C(=O)O1)c1ccc(Cl)s1 [rivaroxaban]
Reported therapeutic concentration [6]: approximately 600 nM
PT ([1]; 1 μM rivaroxaban, baseline PT 14.1 sec): 23.4 s
PT (average±standard deviation) [7]: 32.3 ± 6.1 s

COc1ccc(NC(=O)c2ccc(C(=N)N(C)C)cc2)c(C(=O)Nc2ccc(Cl)cn2)c1 [betrixaban, [2-({4-[(dimethylamino)iminomethyl]phenyl}carbonylamino)-5-methoxyphenyl]-N-(5-chloro(2-pyridyl))carboxamide]
inhibition of fXa by betrixaban (thrombin generation) (thrombin generation): about 75%
aPTT ([8]; 300 nM Betrixaban): 61.8 s
aPTT ([8]; 400 nM betrixaban): 66.3 s
extension of aPTT ([8]; 400 nM betrixaban): more than two folds
concentration at […] ([9]; Mean, pd-Antidote treated mice): 687 ng/mL
concentration at […] ([9]; Mean, r-Antidote treated mice): 381 ng/mL
concentration at […] ([9]; individual animal, r-Antidote treated mice): 434 ng/mL
concentration at 30 min ([10]; 1 mg/kg/hr, Betrixaban + antidote (uM), betrixaban plasma concentration, betrixaban 1.0 mg/kg/hr IV for 30 min, antidote group before antidote dosing): 0.154 µM
concentration at 30 min [10, 12]: 0.169 µM
concentration at 35 min [10, 12]: 0.062 µM
concentration at 60 min [10, 12]: 0.045 µM
concentration at 90 min [10, 12]: 0.048 µM
concentration at 35 min [10, 13]: 1.57 µM
concentration at 60 min [10, 13]: 1.88 µM
concentration at 90 min [10, 13]: 1.19 µM

CO[C@H]1O[C@H](COS(=O)(=O)O)[C@@H](O[C@@H]2O[C@@H](C(=O)O)[C@@H](O[C@H]3O[C@H](COS(=O)(=O)O)[C@@H](O[C@@H]4O[C@H](C(=O)O)[C@@H](O[C@H]5O[C@H](COS(=O)(=O)O)[C@@H](O)[C@H](O)[C@H]5NS(=O)(=O)O)[C@H](O)[C@H]4O)[C@H](OS(=O)(=O)O)[C@H]3NS(=O)(=O)O)[C@H](O)[C@H]2OS(=O)(=O)O)[C@H](O)[C@H]1NS(=O)(=O)O [fondaparinux]
anti-fXa activity expressed with enoxaparin as the standard (fXa (bovine fXa); human plasma): 0.80 U/ml enoxaparin
anti-fXa activity expressed with enoxaparin as the standard (fXa (bovine fXa); rat plasma): 0.66 U/ml enoxaparin

protamine sulfate
reversal of enoxaparin-induced anticoagulation (plasma aPTT) ([3]; rats, enoxaparin 3.0 mg/kg, r-Antidote 5 mg bolus + 5 mg/h or protamine sulfate 0.9 mg): sustained reversal
reversal of blood loss due to fondaparinux ([11]; listed as Protamine): failed to display corrective activity
reversal of blood loss due to fondaparinux ([11]; listed as protamine): did not reverse blood loss
neutralization of enoxaparin activity ([5]; slow intravenous infusion of protamine sulfate, enoxaparin prescribing information): up to 60%
